Consider nine compounds from US20260184710A1, “CASITAS B-LINEAGE LYMPHOMA PROTOONCOGENE B (CBL-B) DEGRADING COMPOUNDS AND ASSOCIATED METHODS OF USE” (Arvinas Operations, Inc., priority 2022, published 2026).

The target in this experiment is T1, Cbl-b (Homo sapiens, UniProt Q13191).
T1 construct: Cbl-b-HiBit KI Jurkat Cells were purchased from Promega; host or cells: Cbl-b-HiBiT knock-in Jurkat cells
Kind of experiment: Cbl-b Degradation Method B (Nano-Glo HiBiT lytic detection). In kind it is cell-based. Particulars: Cbl-b-HiBit KI Jurkat Cells, incubated at least 6-24 hours; for DC50: half maximal degradation, read-out: Cbl-b Degredation Method B IC50; for Dmax: maximum degradation observed, read-out: Cbl-b Degredation Method B Dmax (%). The gist of the method: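 Cbl-b-HiBiT knock-in Jurkat cells (20,000/well) were treated after ~24 h plating with an 11-point 1:3 series for 6-24 h at 37° C. Remaining Cbl-b measured by Nano-Glo HiBiT lytic luminescence. DC50 and Dmax expressed as % of control.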

T1 sequence (Q13191 whole entry): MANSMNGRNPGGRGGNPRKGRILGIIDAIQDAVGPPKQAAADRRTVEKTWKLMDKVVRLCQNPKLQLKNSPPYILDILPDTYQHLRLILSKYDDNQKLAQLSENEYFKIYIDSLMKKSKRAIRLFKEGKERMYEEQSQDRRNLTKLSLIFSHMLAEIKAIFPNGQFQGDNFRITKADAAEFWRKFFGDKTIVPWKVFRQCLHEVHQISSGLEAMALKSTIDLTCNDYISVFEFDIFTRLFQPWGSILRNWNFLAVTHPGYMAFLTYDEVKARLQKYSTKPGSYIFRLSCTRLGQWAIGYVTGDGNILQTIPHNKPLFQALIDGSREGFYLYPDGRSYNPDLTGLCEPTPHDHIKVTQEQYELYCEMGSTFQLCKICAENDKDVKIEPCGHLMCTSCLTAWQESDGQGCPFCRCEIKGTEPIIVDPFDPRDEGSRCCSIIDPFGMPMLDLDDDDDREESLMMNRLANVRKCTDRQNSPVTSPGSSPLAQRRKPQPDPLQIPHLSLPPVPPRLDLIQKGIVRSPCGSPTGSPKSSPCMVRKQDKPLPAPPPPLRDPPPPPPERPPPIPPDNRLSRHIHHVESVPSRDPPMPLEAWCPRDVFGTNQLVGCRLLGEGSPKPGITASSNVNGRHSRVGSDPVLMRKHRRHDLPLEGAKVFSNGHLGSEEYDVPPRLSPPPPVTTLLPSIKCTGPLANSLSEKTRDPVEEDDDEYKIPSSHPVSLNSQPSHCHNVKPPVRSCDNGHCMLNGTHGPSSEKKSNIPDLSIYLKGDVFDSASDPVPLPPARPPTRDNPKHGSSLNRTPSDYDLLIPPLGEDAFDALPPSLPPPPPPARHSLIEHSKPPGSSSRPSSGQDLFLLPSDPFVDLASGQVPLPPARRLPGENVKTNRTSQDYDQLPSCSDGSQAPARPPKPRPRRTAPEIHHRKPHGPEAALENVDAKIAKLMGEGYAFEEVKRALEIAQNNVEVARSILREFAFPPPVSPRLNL

Turning to `CC1c2nc(N3CCC(O[C@H]4CC[C@H](CN5C[C@H]6C[C@@H]5CN6Cc5cc6c(c(C(F)(F)F)c5)CN(c5cccc(C7(Cc8nncn8C)CC7)c5)C6=O)CC4)CC3)ccc2C(=O)N1C1CCC(=O)NC1=O` (stereo partly drawn) [Example 222, 3-[7-methyl-5-oxo-2-(4-{[(1r,4r)-4-{[(1R,4R)-5-{[2-(3-{1-[(4-methyl-4H-1,2,4-triazol-3-yl)methyl]cyclopropyl}phenyl)-3-oxo-7-(trifluoromethyl)-2,3-dihydro-1H-isoindol-5-yl]methyl}-2,5-diazabicyclo[2.2.1]heptan-2-yl]methyl}cyclohexyl]oxy}piperidin-1-yl)-5H,6H,7H-pyrrolo[3,4-b]pyridin-6-yl]piperidine-2,6-dione], the DC50 was below 5 nM and the Dmax fell in the range of 35 to 70%.
As for `CC1c2nc(N3CCC(O[C@H]4CC[C@H](CN5C[C@H]6C[C@@H]5CN6Cc5cc6c(c(C(F)(F)F)c5)CN(c5cccc(C7(Cc8nncn8C)CCC7)c5)C6=O)CC4)CC3)ccc2C(=O)N1C1CCC(=O)NC1=O` (stereo partly drawn) [Example 225, 3-[7-methyl-5-oxo-2-(4-{[(1r,4r)-4-{[(1R,4R)-5-{[2-(3-{1-[(4-methyl-4H-1,2,4-triazol-3-yl)methyl]cyclobutyl}phenyl)-3-oxo-7-(trifluoromethyl)-2,3-dihydro-1H-isoindol-5-yl]methyl}-2,5-diazabicyclo[2.2.1]heptan-2-yl]methyl}cyclohexyl]oxy}piperidin-1-yl)-5H,6H,7H-pyrrolo[3,4-b]pyridin-6-yl]piperidine-2,6-dione], the DC50 is below 5 nM and the maximal degradation (Dmax) lay in the range of 35 to 70%.
Take `Cn1cnnc1C[C@]1(c2cccc(N3Cc4c(cc(CN5CCN(C[C@H]6CC[C@H](OC7CCN(c8ccc9c(ccn9C9CCC(=O)NC9=O)c8)CC7)CC6)CC5)cc4C(F)(F)F)C3=O)c2)C[C@H](C#N)C1` (stereo partly drawn) [Example 226, (1r,3r)-3-[(4-methyl-4H-1,2,4-triazol-3-yl)methyl]-3-(3-{1-oxo-6-[(4-{[(1r,4r)-4-({1-[1-(2,6-dioxopiperidin-3-yl)-1H-indol-5-yl]piperidin-4-yl}oxy)cyclohexyl]methyl}piperazin-1-yl)methyl]-4-(trifluoromethyl)-2,3-dihydro-1H-isoindol-2-yl}phenyl)cyclobutane-1-carbonitrile]: the DC50 is below 5 nM and the Dmax fell in the range of 35 to 70%.
Regarding `Cc1cc(N2CCC(O[C@H]3CC[C@H](CN4CCN(Cc5cc6c(c(C(F)(F)F)c5)CN(c5cccc(C7(Cc8nncn8C)CC7)c5)C6=O)C(C)(C)C4)CC3)CC2)c(F)c2c1C(=O)N(C1CCC(=O)NC1=O)C2` (stereo partly drawn) [Example 227, 3-[4-fluoro-7-methyl-1-oxo-5-(4-{[(1r,4r)-4-[(3,3-dimethyl-4-{[2-(3-{1-[(4-methyl-4H-1,2,4-triazol-3-yl)methyl]cyclopropyl}phenyl)-3-oxo-7-(trifluoromethyl)-2,3-dihydro-1H-isoindol-5-yl]methyl}piperazin-1-yl)methyl]cyclohexyl]oxy}piperidin-1-yl)-2,3-dihydro-1H-isoindol-2-yl]piperidine-2,6-dione], the DC50 is below 5 nM and the Dmax was above 70%.
As for `CC(C)n1c(=O)n(C2CCC(=O)NC2=O)c2ccc(N3CCC(O[C@H]4CC[C@H](CN5CCN(Cc6cc7c(c(C(F)(F)F)c6)CN(c6cccc([C@]8(Cc9nncn9C)C[C@@H](C#N)C8)c6)C7=O)CC5)CC4)CC3)cc21` (stereo partly drawn) [Example 228, (1r,3r)-3-[(4-methyl-4H-1,2,4-triazol-3-yl)methyl]-3-(3-{1-oxo-6-[(4-{[(1r,4r)-4-({1-[1-(2,6-dioxopiperidin-3-yl)-2-oxo-3-(propan-2-yl)-2,3-dihydro-1H-1,3-benzodiazol-5-yl]piperidin-4-yl}oxy)cyclohexyl]methyl}piperazin-1-yl)methyl]-4-(trifluoromethyl)-2,3-dihydro-1H-isoindol-2-yl}phenyl)cyclobutane-1-carbonitrile], the DC50 is below 5 nM and the Dmax was above 70%.
`CC(C)n1c(=O)n(C2CCC(=O)NC2=O)c2ccc(N3CCC(O[C@H]4CC[C@H](CN5CCN(Cc6cc7c(c(C(F)(F)F)c6)CN(c6cccc([C@]8(Cc9nncn9C)C[C@@H](C#N)C8)c6)C7=O)C(C)(C)C5)CC4)CC3)cc21` (stereo partly drawn) [Example 229, (1r,3r)-3-(3-{6-[(2,2-dimethyl-4-{[(1r,4r)-4-({1-[1-(2,6-dioxopiperidin-3-yl)-2-oxo-3-(propan-2-yl)-2,3-dihydro-1H-1,3-benzodiazol-5-yl]piperidin-4-yl}oxy)cyclohexyl]methyl}piperazin-1-yl)methyl]-1-oxo-4-(trifluoromethyl)-2,3-dihydro-1H-isoindol-2-yl}phenyl)-3-[(4-methyl-4H-1,2,4-triazol-3-yl)methyl]cyclobutane-1-carbonitrile]: the DC50 is below 5 nM and the Dmax is above 70%.
As for `C[C@H]1CN(CC2CCC(OC3CCN(c4ccc5c(c4F)CN(C4CCC(=O)NC4=O)C5=O)CC3)CC2)[C@@H](C)CN1Cc1cc2c(c(C(F)(F)F)c1)CN(c1cccc(C3(Cc4nncn4C)COC3)c1)C2=O` (stereo partly drawn) [Example 242, 3-[4-fluoro-1-oxo-5-(4-{[(1rs,4rs)-4-{[(2S,5S)-2,5-dimethyl-4-{[2-(3-{3-[(4-methyl-4H-1,2,4-triazol-3-yl)methyl]oxetan-3-yl}phenyl)-3-oxo-7-(trifluoromethyl)-2,3-dihydro-1H-isoindol-5-yl]methyl}piperazin-1-yl]methyl}cyclohexyl]oxy}piperidin-1-yl)-2,3-dihydro-1H-isoindol-2-yl]piperidine-2,6-dione], the DC50 is below 5 nM and the Dmax was above 70%.
Take `CC1c2nc(N3CCC(OC4CCC(CN5[C@H](C)CN(Cc6cc7c(c(C(F)(F)F)c6)CN(c6cccc(C8(Cc9nncn9C)COC8)c6)C7=O)C[C@@H]5C)CC4)CC3)ccc2C(=O)N1C1CCC(=O)NC1=O` (stereo partly drawn) [Example 243, 3-[7-methyl-5-oxo-2-(4-{[(1rs,4rs)-4-{[(2R,6S)-2,6-dimethyl-4-{[2-(3-{3-[(4-methyl-4H-1,2,4-triazol-3-yl)methyl]oxetan-3-yl}phenyl)-3-oxo-7-(trifluoromethyl)-2,3-dihydro-1H-isoindol-5-yl]methyl}piperazin-1-yl]methyl}cyclohexyl]oxy}piperidin-1-yl)-5H,6H,7H-pyrrolo[3,4-b]pyridin-6-yl]piperidine-2,6-dione]: the DC50 was below 5 nM and the Dmax is above 70%.
Turning to `C[C@@H]1CN(Cc2cc3c(c(C(F)(F)F)c2)CN(c2cccc(C4(Cc5nncn5C)COC4)c2)C3=O)CCN1C[C@H]1CC[C@H](OC2CCN(c3ccc4c(c3F)CN(C3CCC(=O)NC3=O)C4=O)CC2)CC1` (stereo partly drawn) [Example 244, 3-[4-fluoro-1-oxo-5-(4-{[(1r*,4r*)-4-{[(2R)-2-methyl-4-{[2-(3-{3-[(4-methyl-4H-1,2,4-triazol-3-yl)methyl]oxetan-3-yl}phenyl)-3-oxo-7-(trifluoromethyl)-2,3-dihydro-1H-isoindol-5-yl]methyl}piperazin-1-yl]methyl}cyclohexyl]oxy}piperidin-1-yl)-2,3-dihydro-1H-isoindol-2-yl]piperidine-2,6-dione], the DC50 was below 5 nM and the Dmax was above 70%.
